The text below walks through data of a melting point compilation (Tetko et al.; mined from patent text by program, amines drawn as free bases though some values may be those of a salt).

SMILES strings stand for the structures. Residues, ends and D or L forms follow the SMILES beside them. Some results are limits rather than exact numbers.

`COc1cc(N)c(Cl)cc1C(=O)NCC1CCN(CCCCCC(=O)c2ccc(Cl)cc2Cl)CC1` displayed a melting point of 150 to 155 °C. Consider `COc1ccc(CCN2CCC(Cc3nc4ncnc(O)c4n3Cc3ccc(F)cc3)CC2)cc1`, for which the melting point was determined as 122 °C. In turn, `Cc1nnc(-c2ccc3ncn(-c4cc(C(F)(F)F)ccc4Cl)c3c2)o1` came in with a melting point of 211 to 212 °C. Compound `CCC(=O)Oc1cc(OC)cc(OC)c1C(=O)C=Cc1cccn1C` gave a melting point of 108 °C. In turn, `CC(C)c1cc(C(C)C)c(C=CCC(=O)O)c(C(C)C)c1` registered a melting point of 201 to 203 °C. As for `O=C(COc1ccc(-c2cc3ccc(OCC(=O)c4ccc(Cl)cc4)cc3s2)cc1)c1ccc(Cl)cc1`, the melting point came out at 210 °C. On to `CS(=O)(=O)OCCc1cc(Nc2ncc3c(n2)-c2ccccc2[C@H](c2ccccc2F)C3)ccc1F`, for which the melting point was 99 to 100 °C.

`CC(=O)OC1CSC(Oc2ccc(Cl)nc2)C(OC(C)=O)C1OC(C)=O` (configuration not stated) had a melting point of 141 °C. The compound `N#CCc1ccccc1NC(=O)C(F)(F)C(F)(F)C(F)(F)F` yielded a melting point of 76 to 79 °C. In turn, `CCCc1c(OCC(O)COc2cc(N)c(C)cc2Cl)ccc(C(C)=O)c1O` (configuration not stated) displayed a melting point of 94 to 95 °C. `CS(=O)(=O)c1ccc(-c2cnn(-c3ccc(F)c(F)c3)c(=O)c2Cc2ccc(F)cc2)cc1` came in with a melting point of 157 to 159 °C. For the compound `O=C(O)C1CCN1C(c1ccccc1)c1ccccc1` (configuration not stated), the melting point is 132 to 137 °C.

Turning to `FC(F)(F)c1cnc(-n2ccc3ccncc32)c(Cl)c1`, the melting point lay in the range of 88 to 90 °C. `CCCCCC(C(=O)O)n1cnc2cc(-c3ccccc3-c3nn[nH]n3)ccc21` (configuration not stated) registered a melting point of 123 to 130 °C. On to `C=C(C)C(=O)NC1(C(=O)O)CCCCC1`, for which the melting point lay in the range of 176 to 178 °C. In the case of `CSc1ncc2c(n1)Nc1ccccc1-n1nnnc1-2` it was 244 to 246 °C. As for `O=C1Nc2ccccc2SC1CO` (configuration not stated), the melting point fell in the range of 156 to 157 °C.

Take `COc1cc(-c2cnc3[nH]cc(C(=O)CCC(C)OC)c3n2)cc(OC)c1OC` (configuration not stated): the melting point is 150 to 151 °C.

Compound `CCOC(=O)c1nnc2n1-c1ccccc1C(c1ccccc1Cl)=NC2` showed a melting point of 235 to 237 °C. Compound `Cc1ccc2c(c1)c(O)c(C(=O)NC1CCCCC1)c(=O)n2Cc1ccccc1` came in with a melting point of 87 °C. Turning to `Cc1oc(-c2ccccc2)nc1COc1ccc([N+](=O)[O-])cc1F`, the melting point lay in the range of 155 to 156 °C.

In turn, `Oc1ncnc2[nH]c(-c3ccncc3)cc12` showed a melting point above 260 °C. The figure for `O=C(NC1CCC2(O)C3Cc4ccc(O)c5c4C2(CCN3CC2CC2)C1O5)c1ccccc1` (configuration not stated) is 182 to 185 °C; for `COc1ccc(NC(=O)c2c(Cl)cccc2Cl)c2nccc(N3CCN(C)C3=O)c12` it is 227 to 237 °C. Regarding `CCCNC(=O)NNC=NC(=O)c1nc(Cl)c(N)nc1N`, the melting point was 220 to 221 °C. For the compound `O=C1NC(=O)c2c1c(-c1cccc(Cl)c1Cl)cc1[nH]c3ccc(O)cc3c21`, the melting point is 233 to 235 °C. In turn, `CC(=O)c1c[nH]c(C)n1` returned a melting point of 124 to 127 °C. As to `O=C(O)c1ccc(C(=O)NC/C=C/c2ccccc2)cc1`, the melting point lay within 176 to 178 °C. Turning to `CS(=O)(=O)c1ccc(N2C[C@H](COc3ccon3)OC2=O)cc1`, the melting point was 180 °C. In turn, `COc1cc(/C=C(\C)C(=O)O)c2cccc(C(C)C)c2c1O` yielded a melting point of 195 to 196 °C.

For `COC(C(=O)O)c1ccsc1` (configuration not stated), the melting point lay in the range of 80 to 82 °C. The compound `CN(C)c1ccc2c(n1)C(c1ccccc1Cl)=NCc1n[nH]c(=O)n1-2` yielded a melting point of 244 to 246 °C. `Cc1cc(S(=O)(=O)Nc2cccnc2Nc2ccccc2)c(C)cc1Cl` came in with a melting point of 153 to 154 °C. The compound `Cc1ccc(C2COc3cc(O)ccc3C2c2ccc(OCCN3CCCCC3)cc2)cc1` (configuration not stated) had a melting point of 146 to 148 °C. With `CCCC(=O)c1cnc2c(C=O)cccc2c1Nc1ccccc1C`, the melting point was in the range of 142 to 144 °C.

Take `Nc1ccc([N+](=O)[O-])cc1OCCCCOc1cc([N+](=O)[O-])ccc1N`: the melting point lay within 226 to 228 °C.

For `COc1ccc2c(c1CCc1ccccc1)CCCC2=O`, the melting point lay in the range of 102 to 105 °C. In the case of `c1ccc(-c2ccc3nc(COc4ccc(CCCn5ccnc5)cc4)cn3c2)cc1` it was 106 to 107 °C; in that of `COC(=O)c1ccc(F)cc1NS(C)(=O)=O`, 116 °C.

In turn, `CN1C(=O)CC[C@]2(C)c3ccc(-c4cc(C(F)(F)F)nc5c(C(F)(F)F)cccc45)cc3CC[C@@H]12` showed a melting point of 100 to 106 °C. In the case of `O=C1c2c(Cl)cccc2-n2cnc(-c3nnc(CCl)o3)c2[C@@H]2CCN12` it was 185 to 189 °C; in that of `COC(=O)C(Cc1ccccc1)NC(=O)C(CC(=O)O)NC(=O)C1CCCN1` (stereo not drawn) (H-Pro-Asp-Phe-OMe; configuration not given here), 238 to 242 °C. Consider `COc1ccc2ccc3nc(C(N)=O)cn3c2c1`, for which the melting point fell in the range of 273 to 276 °C.

`COc1ccc(C(=O)Nc2ccc(S(N)(=O)=O)cc2)c(SSc2cc(OC)ccc2C(=O)Nc2ccc(S(N)(=O)=O)cc2)c1` gave a melting point of 315 to 316 °C. The figure for `CCOC(=O)C1Cc2cc(OC)c(OC)cc2C1=O` (configuration not stated) is 140 to 141 °C. In the case of `COc1ccc2c(c1)Sc1cc(OC)c(Cl)cc1C(=O)C2` it was 186 to 188 °C. In turn, `COc1ccc(COc2coc(COC3CCCCO3)cc2=O)cc1` (configuration not stated) yielded a melting point of 95 to 96 °C.

With `CCc1ccc(-c2c(Cl)c(CCl)nc3sc4c(c23)CCN(C(=O)OCc2ccccc2)C4)cc1`, the melting point is 126 to 128 °C. As to `CCOC(=O)C1(CC(C)=O)OC(=O)C(=O)C1C(C)=O` (configuration not stated), the melting point lay within 87 to 88 °C.

`N#Cc1cccc2c(O)c(C(=O)NCc3ccc(Cl)cc3)cnc12` showed a melting point of 287 to 289 °C. Consider `O=C(NCCO)C(=O)c1ccc(OCCOc2ccc3ccccc3c2)cc1`, for which the melting point was 138 to 140 °C. For `N#CCc1cn(Nc2ccncc2)c2ccccc12`, the melting point lay within 80 to 83 °C. For the compound `COc1cc(CC(C#N)=CNc2ccccc2)c2c(c1OC)OC(C1CC1)C=C2` (racemic), the melting point turned out to be 140 °C. With `CN(c1ccc(OC2CCCC2)cc1)S(C)(=O)=O`, the melting point fell in the range of 120 to 122 °C. For the compound `COc1ccc2c(C(C)C(=O)OCCNC(=O)c3cccnc3)cccc2c1` (single isomer, unassigned; (+)), the melting point was in the range of 79 to 82 °C. Compound `CC(=O)Nc1ncc(C(C)=O)cc1C` had a melting point of 115 to 116 °C. The figure for `COC(=O)C(Oc1cc(OCc2ccc3ncoc3c2)ccc1C#N)c1ccccc1Cl` (racemic) is 157 to 159 °C. Regarding `CCOC(=O)c1cccc(-c2cn(C)cc(-c3ccccc3)c2=O)c1`, the melting point was in the range of 167 to 168 °C. The figure for `O=C1CCCN1C(=O)c1cccnc1` is 98 to 100 °C; for `Cc1cc(-n2nc3ccc(Cl)cc3n2)c(O)c(C(C)(C)C)c1` it is 138 to 140 °C. In the case of `CCCCNC(=O)c1nc(-c2ccccc2)c(-c2ccc(=O)n(C(C)C)n2)s1` it was 148 °C; in that of `c1ccc(COc2ccc(CNn3cncn3)cc2)cc1`, 123 to 124 °C.

Broadly, the melting point is the temperature, or range, at which the solid turns liquid.
